Assay results as given in US20260272954A1, “ANALGESIC COMPOUNDS COMPRISING CHARGED PARTICLES AND METHOD OF MANUFACTURE THEREOF” (UNIVERSITY OF CONNECTICUT, priority 2023, published 2026).

Test: Release of QX-314 into water through dialysis membrane (HPLC)
Assay type: physicochemical
Conditions: dialysis membrane in 20 ml ultrapure water; FIG. 6
Experimental: High Performance Liquid Chromatography (HPLC) was used to assess the amount of QX-314 remaining in the supernatant after complexing with the NPs. The conditions for HPLC were as follows. The mobile phase consisted of 50 mM phosphate buffer, with 0.16% triethylamine, pH 4.0 buffer:methanol:acetonitrile=60:30:10 vol/vol/vol. The chromatographic conditions were: 30 μL of solution injected, 40° C. constant temperature, flow rate of 0.3 ml/min, and wavelength detection of 210 nm. The column used was a Supelco C18 Column 25 cm×4.6 mm.
The DPPC:PA (mass ratio=1:1) nanoparticles were complexed with QX-314 by incubating 0.5 mg of QX-314 with 1 mL of 0.25% (w/v) lipid solution in a 37° C. room on a gentle shaker. After 1 hour, the formulation was transferred to a dialysis membrane and incubated in 20 ml of ultrapure water. The amount of QX-314 released into the water was measured as a function of time using HPLC as described above. Aqueous solution of QX-314 in dialysis membrane was used as the control. A representative image of positively charged molecule (QX-314) complexed with negatively charged lipid (L-α-phosphatidic acid) is shown below.

burst release of QX-314 (time): ≤ 3 h
SMILES: CC[N+](CC)(CC)CC(=O)Nc1c(C)cccc1C [QX-314 solution, QX-314]
